Tests used:
M. incognita J2s [1] = experiment: Plant protection assay, C. reinhardtii secreting uNLPs; type: in vivo, Meloidogyne incognita; conditions: Fig 4A; peptide secreted by transgenic C. reinhardtii culture in tomato invasion arena with 500 J2s; relative to untransformed C. reinhardtii = 100%; mean
Procedure: (§1) Tomato seeds were sterilised with 2.5% NaOCl for 15 minutes, washed 5 times in ddH20 and germinated on 0.5% Murashige and Skoog plates at 23°C. […] Invasion assays were performed by mixing 500 pre-treated M. incognita or G. pallida J2s with agar slurry and a single tomato seedling (2 days post germination) in a 6 well plate. Assays were left at 23°C for 24 hours in the case of M. incognita and at 18°C for 24 hours in the case of G. pallida under a 16 hour light and 8 hour darkness cycle. Seedlings were stained using acid fuschin [69] and the number of nematodes within the roots counted. At least five seedlings were used for M. incognita infections assays, with at least 15 seedlings used for G. pallida infections assays (due to increased variation).
(§2) B. subtilis were grown overnight in LB media containing ampicillin (100 μg/ml) at 37°C with shaking, and harvested in the log phase of growth determined by measuring OD600nm. Five ml of culture at 0.5 OD was spun down and the pellet mixed with 3 ml of agar slurry and 500 J2s from either G. pallida or M. incognita. C. reinhardtii clones were grown at 23°C with shaking, cultures in the log phase were measured at OD750 and 5 ml of culture at 0.5 OD was pelleted by centrifugation. C. reinhardtii pellets were mixed with 3 ml of agar slurry and 500 J2s from either G. pallida or M. incognita. Plant invasion assays were performed as described above. […]

G. pallida J2s [2] = experiment: Plant protection assay, B. subtilis secreting uNLPs; type: in vivo, Globodera pallida; conditions: Fig 4D; peptide secreted by transgenic B. subtilis culture in tomato invasion arena with 500 J2s; control = 100%; mean
Procedure: as §1, §2

M. incognita J2s [3] = experiment: Tomato invasion assay with uNLP pre-treated J2s; type: in vivo, Meloidogyne incognita; conditions: for % Invasion: mean
Procedure: (§3) Predicted uNLPs from both M. incognita and G. pallida were synthesised by EZBiolab and dissolved into pH adjusted ddH2O to make a 5 mM stock which was aliquoted and stored at -20°C. J2s of both M. incognita and G. pallida were incubated for 24 hours in 200 μl of each peptide in a 24 well plate (SPL Lifesciences, South Korea) at a defined concentration.
as §1

G. pallida J2s [4] = experiment: Chemosensory (chemotaxis) assay of uNLP pre-treated J2s towards tomato root exudate; type: in vivo, Globodera pallida
Procedure: as §3
A 60 mm Petri dish was divided into two segments, a positive and a negative side, with a 0.5 cm 'dead zone' either side of the centre point. The petri dish was filled with 15 ml of 0.25% w/v agar which was allowed to solidify. 3 ml of 0.25% w/v agar slurry in spring water (pH 7, agitated with a magnetic stirrer for several hours to give a smooth consistency) was added to the petri dish and spread evenly over the surface. Root diffusate (attractant) and water only (control) 0.25% agar plugs were embedded in the agar slurry, either side of the assay arena. Root diffusate was collected from 10 tomato plants, aged 3–6 weeks in 1 litre pots, by pouring 500 ml of ddH20 through the soil three times. Diffusate from each plant was combined, filter sterilised and stored at 4°C for a maximum of 1 month. Root diffusate agar plugs were made by melting 1.25% agar in ddH20, cooling to 50°C before mixing with 4 parts of root diffusate. The agar was then allowed to solidify at room temperature. 100 uNLP pre-treated M. incognita or G. pallida J2s were added by pipette to the centre of the plate. J2s which moved out of the 'dead zone' after 3 hours were counted and their location (+/-) scored. The distribution of J2s were used to create a chemotaxis index for each plate, which formed one replicate, a total of 10 replicates where completed for each uNLP treatment.

G. pallida J2s [5] = experiment: Tomato invasion assay with uNLP pre-treated J2s; type: in vivo, Globodera pallida; conditions: 100 μM uNLP, 24 h; tomato cv. Moneymaker; relative to controls
Procedure: as §3, §1

M. incognita J2s [6] = experiment: Serotonin-induced stylet thrusting assay; type: in vivo, Meloidogyne incognita; conditions: Fig 1C; J2s incubated in 100 μM uNLP for 24 h; stylet thrusts in 5 mM serotonin, counted 1 min; normalised to control = 100%; mean, at least 30 J2s
Procedure: as §3
Stylet thrusting assays where performed by incubating 100 M. incognita or G. pallida J2s for 15 minute in 5 mM or 2 mM serotonin (Sigma Aldrich, USA), respectively. J2s were placed on a glass slide and stylet thrusts were counted for randomly selected J2s, for 1 minute each. Counts for a given cohort of J2s were taken in a maximum interval of 15 minutes. Longer counting intervals, making for longer serotonin incubations, yielded inconsistent results. At least 30 J2s were counted for each neuropeptide treatment.

Sequence: SFDSFTGPGFTGLD [Mi-NLP-15b, predicted unamidated NLP perfectly conserved between M. incognita and G. pallida; synthesised, also secreted from transgenic microbes]
- % Invasion (M. incognita J2s [1]): 10.82%
- % Invasion (G. pallida J2s [2]): 51.98%
- effect on host invasion (in words) (M. incognita J2s [3]; 100 μM uNLP, 24 h, tomato cv. Moneymaker, relative to controls): inhibited
- % Invasion (M. incognita J2s [3]; Fig 1B, 500 J2s incubated in 100 μM uNLP for 24 h, single tomato seedling, 24 h at 23°C, normalised to negative control = 100%): 32.22%
- % Invasion (M. incognita J2s [3]; Fig 3B, 100 nM peptide, 24 h, control = 100%): 69.90%
- % Invasion (M. incognita J2s [3]; Fig 3B, 1 µM peptide, 24 h, control = 100%): 59.05%
- % Invasion (M. incognita J2s [3]; Fig 3B, 10 µM peptide, 24 h, control = 100%): 54.62%
- % Invasion (M. incognita J2s [3]; Fig 3B, 100 µM peptide, 24 h, control = 100%): 35.06%
- effect on chemosensation (in words) (G. pallida J2s [4]; 100 μM uNLP, 24 h, relative to controls): inhibits G. pallida chemotaxis
- CI score (G. pallida J2s [4]; Fig 2A, J2s incubated in 100 μM uNLP for 24 h, tomato cv. Moneymaker root exudate vs water agar plugs, counted after 3 h, mean of 10 replicates of 100 J2s, control 0.4154): -0.04762
- effect on host invasion (in words) (G. pallida J2s [5]): does not inhibit host invasion
- % Thrusting (M. incognita J2s [6]): 129.90%
